Data on six compounds can be found in PubChem BioAssay AID256 (DTP/NCI, 2004).

For this assay, the system named is CD2F1 mice, L1210 leukemia ip, survival T/C. The assay is described as follows: NCI In Vivo Anticancer Drug Screen. Data for tumor model L1210 Leukemia (intraperitoneal) in CD2F1 (CDF1) mice. Particulars: higher = longer survival. A digest of the protocol:
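Ratio T/C, where T is the treated-group value and C the vehicle-dosed control value, from mice implanted with a transplantable tumor.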

The mark [1] stands for this setting: endpoint: mean survival time, dose: 200.0 mg/kg/injection, schedule: Q01DX009 (ip), vehicle: saline with Tween-80.
[2] abbreviates: endpoint: mean survival time, dose: 100.0 mg/kg/injection, schedule: Q04DX003 (ip), vehicle: saline with Tween-80.
[3] abbreviates: endpoint: mean survival time, dose: 200.0 mg/kg/injection, schedule: Q04DX003 (ip), vehicle: saline with Tween-80.

Molecules are shown by their SMILES. Where “and” joins values, the source holds several entries; their conditions need not be identical. Identical values can stand only once. Toxic doses and inconclusive results are not listed.

Take `Nc1nc(F)nc2c1ncn2C1OC(COP(=O)(O)O)C(O)C1O` (stereo not given): the T/C (endpoint: mean survival time, dose: 6.25 mg/kg/injection, schedule: Q01DX009 (ip), vehicle: saline) is 98 % of control; the T/C (endpoint: mean survival time, dose: 12.5 mg/kg/injection, schedule: Q01DX009 (ip), vehicle: saline) is 104 % of control; the T/C (endpoint: mean survival time, dose: 25.0 mg/kg/injection, schedule: Q01DX009 (ip), vehicle: saline) is 118 % of control; the T/C (endpoint: mean survival time, dose: 50.0 mg/kg/injection, schedule: Q01DX009 (ip), vehicle: saline) was 114 % of control; the T/C (endpoint: mean survival time, dose: 60.0 mg/kg/injection, schedule: Q01DX009 (ip), vehicle: saline) is 124 % of control; the T/C (endpoint: mean survival time, dose: 88.98 mg/kg/injection, schedule: Q01DX009 (ip), vehicle: saline with Tween-80) is 174 % of control. The T/C reads like this: (endpoint: mean survival time, dose: 90.0 mg/kg/injection, schedule: Q01DX009 (ip), vehicle: saline) 182 % of control; (endpoint: mean survival time, dose: 100.0 mg/kg/injection, schedule: Q01DX009 (ip), vehicle: saline) 171 % of control; (endpoint: mean survival time, dose: 133.0 mg/kg/injection, schedule: Q01DX009 (ip), vehicle: saline) 183 % of control; (endpoint: mean survival time, dose: 133.4 mg/kg/injection, schedule: Q01DX009 (ip), vehicle: saline with Tween-80) 244 % of control; (endpoint: mean survival time, dose: 133.4 mg/kg/injection, schedule: Q01DX009 (ip), vehicle: saline) 180 % of control; (endpoint: mean survival time, dose: 135.0 mg/kg/injection, schedule: Q01DX009 (ip), vehicle: saline) 288 % of control and 156 % of control. The T/C is 100 % of control under setting [1]; 231 % of control [middle of 4 runs] (endpoint: mean survival time, dose: 200.0 mg/kg/injection, schedule: Q01DX009 (ip), vehicle: saline); 362 % of control (endpoint: mean survival time, dose: 219.0 mg/kg/injection, schedule: Q01DX009 (ip), vehicle: saline); 98 % of control (endpoint: mean survival time, dose: 292.0 mg/kg/injection, schedule: Q01DX009 (ip), vehicle: saline); 114 % of control and 112 % of control (endpoint: median survival time, dose: 32.0 mg/kg/injection, schedule: Q01DX009 (ip), vehicle: saline); 167 % of control (endpoint: median survival time, dose: 40.0 mg/kg/injection, schedule: Q03HX024 (ip), vehicle: sodium bicarbonate). Further, the T/C is 114 % of control and 111 % of control (endpoint: median survival time, dose: 47.0 mg/kg/injection, schedule: Q01DX009 (ip), vehicle: saline); 193 % of control (endpoint: median survival time, dose: 56.0 mg/kg/injection, schedule: Q03HX024 (ip), vehicle: sodium bicarbonate); 168 % of control (endpoint: median survival time, dose: 85.0 mg/kg/injection, schedule: Q03HX024 (ip), vehicle: sodium bicarbonate); 169 % of control and 185 % of control (endpoint: median survival time, dose: 90.0 mg/kg/injection, schedule: Q01DX009 (ip), vehicle: saline); 178 % of control (endpoint: median survival time, dose: 98.8 mg/kg/injection, schedule: Q01DX009 (ip), vehicle: saline); 101 % of control (endpoint: median survival time, dose: 100.0 mg/kg/injection, schedule: Q01DX001 (oral), vehicle: sodium bicarbonate). Besides, the T/C runs as follows: (endpoint: median survival time, dose: 100.0 mg/kg/injection, schedule: Q01DX005 (oral), vehicle: sodium bicarbonate) 111 % of control; (endpoint: median survival time, dose: 105.0 mg/kg/injection, schedule: Q01DX009 (ip), vehicle: saline) 172 % of control; (endpoint: median survival time, dose: 110.0 mg/kg/injection, schedule: Q03HX008 (ip), vehicle: sodium bicarbonate) 163 % of control; (endpoint: median survival time, dose: 111.0 mg/kg/injection, schedule: Q01DX009 (ip), vehicle: saline) 159 % of control; (endpoint: median survival time, dose: 118.0 mg/kg/injection, schedule: Q01DX005 (ip), vehicle: sodium bicarbonate) 175 % of control; (endpoint: median survival time, dose: 125.0 mg/kg/injection, schedule: Q03HX024 (ip), vehicle: sodium bicarbonate) 625 % of control. For the same compound, the T/C runs as follows: (endpoint: median survival time, dose: 134.0 mg/kg/injection, schedule: Q01DX009 (ip), vehicle: saline) 196 % of control and 202 % of control; (endpoint: median survival time, dose: 148.0 mg/kg/injection, schedule: Q01DX009 (ip), vehicle: saline) 235 % of control; (endpoint: median survival time, dose: 157.0 mg/kg/injection, schedule: Q01DX009 (ip), vehicle: saline) 182 % of control and 283 % of control; (endpoint: median survival time, dose: 167.0 mg/kg/injection, schedule: Q01DX009 (ip), vehicle: saline) 207 % of control; (endpoint: median survival time, dose: 170.0 mg/kg/injection, schedule: Q03HX008 (ip), vehicle: sodium bicarbonate) 190 % of control; (endpoint: median survival time, dose: 175.0 mg/kg/injection, schedule: Q01DX009 (ip), vehicle: saline) 207 % of control. For the same compound, the T/C was 216 % of control (endpoint: median survival time, dose: 177.0 mg/kg/injection, schedule: Q01DX005 (ip), vehicle: sodium bicarbonate); 171 % of control (endpoint: median survival time, dose: 177.0 mg/kg/injection, schedule: Q01DX005 (iv), vehicle: sodium bicarbonate); 97 % of control (endpoint: median survival time, dose: 200.0 mg/kg/injection, schedule: Q01DX001 (oral), vehicle: sodium bicarbonate); 219 % of control and 198 % of control (endpoint: median survival time, dose: 200.0 mg/kg/injection, schedule: Q01DX009 (ip), vehicle: saline); 152 % of control (endpoint: median survival time, dose: 200.0 mg/kg/injection, schedule: Q04DX003 (ip), vehicle: sodium bicarbonate); 297 % of control (endpoint: median survival time, dose: 222.0 mg/kg/injection, schedule: Q01DX009 (ip), vehicle: saline). Also, the T/C is 304 % of control (endpoint: median survival time, dose: 225.0 mg/kg/injection, schedule: Q01DX009 (ip), vehicle: saline); 296 % of control (endpoint: median survival time, dose: 234.0 mg/kg/injection, schedule: Q01DX009 (ip), vehicle: saline); 197 % of control and 284 % of control (endpoint: median survival time, dose: 250.0 mg/kg/injection, schedule: Q01DX009 (ip), vehicle: saline); 198 % of control (endpoint: median survival time, dose: 250.0 mg/kg/injection, schedule: Q03HX008 (ip), vehicle: sodium bicarbonate); 115 % of control (endpoint: median survival time, dose: 266.0 mg/kg/injection, schedule: Q01DX001 (ip), vehicle: sodium bicarbonate); 222 % of control (endpoint: median survival time, dose: 266.0 mg/kg/injection, schedule: Q01DX005 (ip), vehicle: sodium bicarbonate). Further, the T/C (endpoint: median survival time, dose: 266.0 mg/kg/injection, schedule: Q01DX005 (iv), vehicle: sodium bicarbonate) is 195 % of control; the T/C (endpoint: median survival time, dose: 300.0 mg/kg/injection, schedule: Q04DX003 (ip), vehicle: sodium bicarbonate) was 166 % of control; the T/C (endpoint: median survival time, dose: 375.0 mg/kg/injection, schedule: Q01DX009 (ip), vehicle: saline) was 151 % of control; the T/C (endpoint: median survival time, dose: 400.0 mg/kg/injection, schedule: Q01DX001 (iv), vehicle: sodium bicarbonate) was 120 % of control; the T/C (endpoint: median survival time, dose: 400.0 mg/kg/injection, schedule: Q01DX001 (oral), vehicle: sodium bicarbonate) is 100 % of control; the T/C (endpoint: median survival time, dose: 400.0 mg/kg/injection, schedule: Q01DX005 (iv), vehicle: sodium bicarbonate) is 91 % of control. In addition, the T/C reads like this: (endpoint: median survival time, dose: 450.0 mg/kg/injection, schedule: Q04DX003 (ip), vehicle: sodium bicarbonate) 212 % of control; (endpoint: median survival time, dose: 500.0 mg/kg/injection, schedule: Q01DX009 (ip), vehicle: saline) 94 % of control; (endpoint: median survival time, dose: 670.0 mg/kg/injection, schedule: Q04DX003 (ip), vehicle: sodium bicarbonate) 222 % of control; (endpoint: median survival time, dose: 800.0 mg/kg/injection, schedule: Q01DX001 (oral), vehicle: sodium bicarbonate) 103 % of control; (endpoint: median survival time, dose: 800.0 mg/kg/injection, schedule: Q01DX005 (oral), vehicle: sodium bicarbonate) 150 % of control; (endpoint: median survival time, dose: 1600.0 mg/kg/injection, schedule: Q01DX001 (oral), vehicle: sodium bicarbonate) 113 % of control. Besides, the T/C (endpoint: median survival time, dose: 1600.0 mg/kg/injection, schedule: Q01DX005 (oral), vehicle: sodium bicarbonate) is 175 % of control.

Turning to `Cc1cc(Cl)c(OCC(=O)O)c(Cl)c1`, the T/C under setting [2] is 100 % of control and the T/C under setting [3] was 100 % of control.

In the case of `CC12C(=O)C(C)(C(c3ccccc3)=C1c1ccccc1)C([N+](=O)[O-])C2c1ccccc1` (stereo not given), the T/C is, setting by setting: (endpoint: mean survival time, dose: 100.0 mg/kg/injection, schedule: Q04DX002 (ip), vehicle: saline with Tween-80) 94 % of control; (endpoint: mean survival time, dose: 200.0 mg/kg/injection, schedule: Q04DX002 (ip), vehicle: saline with Tween-80) 97 % of control; (endpoint: mean survival time, dose: 400.0 mg/kg/injection, schedule: Q04DX002 (ip), vehicle: saline with Tween-80) 94 % of control.

Regarding `CC(=O)O[C@H]1CC[C@H]2[C@@H]3CCC4=C(Cl)C(=O)CC[C@]4(C)[C@H]3CC[C@]12C`, the T/C (endpoint: mean survival time, dose: 100.0 mg/kg/injection, schedule: Q01DX009 (ip), vehicle: saline with Tween-80) was 96 % of control; the T/C under setting [2] is 97 % of control; the T/C under setting [1] was 94 % of control; the T/C under setting [3] is 96 % of control; the T/C (endpoint: mean survival time, dose: 400.0 mg/kg/injection, schedule: Q01DX009 (ip), vehicle: saline with Tween-80) was 94 % of control; the T/C (endpoint: mean survival time, dose: 400.0 mg/kg/injection, schedule: Q04DX003 (ip), vehicle: saline with Tween-80) was 103 % of control.

As to `CC(C)COCCCN`, the T/C (endpoint: mean survival time, dose: 100.0 mg/kg/injection, schedule: Q04DX003 (ip), vehicle: saline) was 98 % of control.

Consider `Cc1nnc(-c2cn(C3OC(CO)C(O)C3O)c3ncnc(N)c23)nc1C` (stereo not given), for which the T/C (endpoint: mean survival time, dose: 100.0 mg/kg/injection, schedule: Q01DX005 (ip), vehicle: saline) was 97 % of control and the T/C (endpoint: mean survival time, dose: 200.0 mg/kg/injection, schedule: Q01DX005 (ip), vehicle: saline) is 96 % of control.
